Experiment [1] in a line: NIH-3T3 fibroblast cytotoxicity, dose response, cytotoxicity control, cell-based, fluorescence, Alamar Blue, secondary assay (AID 2327).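 Further: NIH-3T3 mouse fibroblasts cultured with fluconazole at 8 µg/mL.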 Type of experiment: functional. On the technique in general: Alamar Blue is a resazurin reagent that responds to reducing activity.
Experiment [2] relates to Streptococcus sp. 'group A'. As to the kind of experiment: Streptococcus pyogenes SK(-)GAS viability under kanamycin – luminescence, BacTiterGlo, confirmation, counter-screen for streptokinase expression inhibitor project, dose response (AID 1900). The experiment is classed as functional, organism-based. (A counterscreen serves to expose hits that act by an unwanted route or on another target.)

Experiment [3] concerns the target T1, Streptokinase A (Streptococcus pyogenes serotype M1, UniProt P10520).
T1 sequence (P10520 whole entry): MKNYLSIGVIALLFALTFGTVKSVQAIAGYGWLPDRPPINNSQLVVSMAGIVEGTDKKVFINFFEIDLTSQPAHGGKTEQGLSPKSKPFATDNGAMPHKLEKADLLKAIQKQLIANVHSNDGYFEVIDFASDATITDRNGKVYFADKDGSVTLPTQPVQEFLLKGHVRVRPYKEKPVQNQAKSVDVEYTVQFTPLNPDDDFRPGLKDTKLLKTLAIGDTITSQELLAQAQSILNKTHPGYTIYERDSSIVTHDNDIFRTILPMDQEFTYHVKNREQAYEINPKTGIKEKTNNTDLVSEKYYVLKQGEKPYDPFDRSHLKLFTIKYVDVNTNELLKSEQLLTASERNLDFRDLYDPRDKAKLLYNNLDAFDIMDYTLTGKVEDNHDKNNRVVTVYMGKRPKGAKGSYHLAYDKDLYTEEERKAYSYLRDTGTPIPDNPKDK
As to the kind of experiment: viability-normalized secreted streptokinase activity reduction – plasminogen activation absorbance, OD405, dose response (AID 1914).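 Further: secreted streptokinase activity via plasminogen activation per viability signal from cell pellet.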 Type of experiment: functional, Streptococcus pyogenes M1 GAS.

A short description of experiment [4]: fluconazole-exposed Candida albicans growth modulators – fluorescence, retest, confirmation (AID 2467). The experiment is classed as functional, cell-based.
Experiment [5] concerns Streptococcus. As to the kind of experiment: GAS UMAA2166 growth inhibition – luminescence, BacTiterGlo, counter-screen for streptokinase expression inhibitor project, dose response (AID 1915).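 Further: potency for reduction of bacterial viability or growth.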 The experiment is classed as functional, organism-based.
Experiment [6] relates to INS1. As to the kind of experiment: INS-1E survival protection against cytokine death – cell-based, luminescence, retest, dose response (AID 449756).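 Further: cell death triggered by IL-1 beta plus TNF-alpha plus IFN-gamma mixture; protective hits raise ATP signal compared with cytokine alone wells.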 Type of experiment: functional. The settings on record: Rattus norvegicus.
For experiment [7], the target named is Cytochrome P450 2D6 (Homo sapiens, UniProt P10635).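 Further: CYP2D6 member of a cytochrome P450 panel assay.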
Experiment [8] deals with Cytochrome P450 2C9 (Homo sapiens, UniProt P11712).
Experiment [9] addresses Cytochrome P450 3A4 (Homo sapiens, UniProt P08684).

Where “and” joins values, the source holds several entries; their conditions need not be identical. Equal entries are not always repeated. Calls of active or inactive are those of the source. A value given as a limit tells only on which side of the number the result lay.

As a reminder, the EC50 is the concentration at which the effect is half-maximal. Usually AC50 stands for the midpoint of the concentration-response curve, whichever way the signal moves.

Chain of Cytochrome P450 2D6 (P10635 whole entry): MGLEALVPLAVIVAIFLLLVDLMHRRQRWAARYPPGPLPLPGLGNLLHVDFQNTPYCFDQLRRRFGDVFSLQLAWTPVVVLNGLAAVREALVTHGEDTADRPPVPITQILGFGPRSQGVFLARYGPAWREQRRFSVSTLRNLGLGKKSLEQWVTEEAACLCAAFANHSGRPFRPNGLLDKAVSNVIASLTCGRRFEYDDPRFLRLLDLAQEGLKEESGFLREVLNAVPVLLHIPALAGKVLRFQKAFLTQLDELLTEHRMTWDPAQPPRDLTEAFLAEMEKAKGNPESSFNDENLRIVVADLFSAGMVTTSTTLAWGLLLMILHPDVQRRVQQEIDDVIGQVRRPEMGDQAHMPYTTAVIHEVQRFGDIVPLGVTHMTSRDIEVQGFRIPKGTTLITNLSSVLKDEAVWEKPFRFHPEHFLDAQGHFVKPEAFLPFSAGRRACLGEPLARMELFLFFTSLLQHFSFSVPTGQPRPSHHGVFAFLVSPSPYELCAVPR
Chain of Cytochrome P450 2C9 (P11712 whole entry): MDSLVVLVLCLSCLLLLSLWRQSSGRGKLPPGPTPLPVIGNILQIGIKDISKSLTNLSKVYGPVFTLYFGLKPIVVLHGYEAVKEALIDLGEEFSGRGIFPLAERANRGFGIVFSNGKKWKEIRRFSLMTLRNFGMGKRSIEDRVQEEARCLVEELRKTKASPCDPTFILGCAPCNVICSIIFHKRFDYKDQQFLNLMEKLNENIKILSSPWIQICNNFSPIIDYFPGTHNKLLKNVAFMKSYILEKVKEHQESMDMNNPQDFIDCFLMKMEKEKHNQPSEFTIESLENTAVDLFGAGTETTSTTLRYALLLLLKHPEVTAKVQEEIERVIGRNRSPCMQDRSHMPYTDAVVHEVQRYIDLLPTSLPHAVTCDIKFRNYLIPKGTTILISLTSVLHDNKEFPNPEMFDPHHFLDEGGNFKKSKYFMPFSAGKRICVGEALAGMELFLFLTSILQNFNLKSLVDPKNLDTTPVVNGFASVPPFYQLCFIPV
Chain of Cytochrome P450 3A4 (P08684 whole entry): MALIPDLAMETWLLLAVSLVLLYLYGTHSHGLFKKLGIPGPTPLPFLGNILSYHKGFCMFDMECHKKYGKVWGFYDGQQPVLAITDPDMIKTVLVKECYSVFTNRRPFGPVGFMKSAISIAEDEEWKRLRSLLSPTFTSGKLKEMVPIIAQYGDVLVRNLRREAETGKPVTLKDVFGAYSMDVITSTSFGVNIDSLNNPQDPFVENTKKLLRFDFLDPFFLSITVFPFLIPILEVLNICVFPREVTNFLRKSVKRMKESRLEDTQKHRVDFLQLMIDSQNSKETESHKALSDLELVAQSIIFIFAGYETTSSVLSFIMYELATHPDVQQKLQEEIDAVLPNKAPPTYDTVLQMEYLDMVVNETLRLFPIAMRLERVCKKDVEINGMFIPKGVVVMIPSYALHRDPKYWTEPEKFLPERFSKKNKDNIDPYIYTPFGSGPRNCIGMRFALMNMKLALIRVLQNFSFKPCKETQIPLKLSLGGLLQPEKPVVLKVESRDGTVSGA

In the case of `CCC1=NN(C(=O)c2ccccc2O)C(O)(c2ccccc2)C1` (configuration not stated), the EC50 in [1] was > 160 µM (inactive); in experiment [2] it was 2.58 µM (active); in [3], > 150 µM (not active); in [4], 0.788 µM (active); in experiment [5], 26.7 µM (active). Moreover, the AC50 in [6] was 3.72 µM (active). Take `Cc1ccc(C)c(/C(=N\N=C(N)N)C2CC2)c1`: in [7], the AC50 is 3.98 µM (inconclusive). As for `c1ccc(-c2ccc(N3CCCC4(CCNCC4)C3)cc2)cc1`, the AC50 in experiment [7] is 20 µM (inconclusive).

As to `C/N=C1\N[C@H](c2ccccc2)N(c2ccccc2)S1`, in experiment [7], the AC50 was 25.1 µM (inconclusive).

For `CC(C)c1ccccc1-n1c(SCC(=O)N2CCN(c3ccccc3)CC2)nnc1-c1cccnc1`, in [7], the AC50 is 15.8 µM (inconclusive). On the same count and under the same terms, under `CCS(=O)(=O)N1CCC(C(=O)NCCN2CCN(Cc3ccccc3)CC2)CC1` stands 14.1 µM (inconclusive); under `C[C@H](NCCc1ccc(O)cc1)[C@@H](O)c1ccc(O)cc1`, 15.8 µM (inconclusive) and 12.6 µM (inconclusive). Regarding `COCCNC(=O)[C@H](C)[C@H]1C[C@]1(C)[C@H](NC(=O)OCc1ccccc1)c1ccccc1`, the AC50 in experiment [7] and in experiment [8] was 20 µM (inconclusive) in each case.

On to `COc1ccc(N(CC(=O)Nc2cccc(C)c2)S(=O)(=O)c2c(C)n[nH]c2C)cc1`, for which the AC50 in [7] was 20 µM (inconclusive).

On to `Cc1cnc(CNc2ncnc3ccc(-c4ccoc4)cc23)cn1`, for which the AC50 in experiment [7] was 39.8 µM (inconclusive). As to `O=C(CCC(=O)c1cccs1)OCC(=O)N1CCN(C(=O)c2ccco2)CC1`, the AC50 in [7] is 39.8 µM (inconclusive); in experiment [8], 11.2 µM (inconclusive). For `O=C1CCCCC/C1=N/Nc1ccc(OCc2ccccc2)cc1`, the EC50 in experiment [1] is > 150 µM (inactive); in [4] it was > 38 µM (not active). Regarding `FC(F)(F)COc1nc(OCC(F)(F)F)nc(N2CCN(c3ccccc3)CC2)n1`, the values for the EC50 in experiment [1] and in experiment [4] were > 160 µM (inactive) and > 38 µM (not active), respectively.

Regarding `CC(C)=CCc1c2c(c(O)c3c(=O)c4c(oc13)-c1cc(O)c(O)cc1OC4C=C(C)C)C=CC(C)(C)O2` (configuration not stated) [CYCLOHETERPHYLLIN], the EC50 in experiment [1] is 16.5 µM (inconclusive); in experiment [2], 2.95 µM (active); in [3], > 150 µM (not active); in experiment [4], > 38 µM (not active); in experiment [5] it was 4.01 µM (active). On to `CCNC(=O)O/N=C(\C)c1sc(-c2ccccc2)nc1C`, for which the AC50 in experiment [7] was 20 µM (inconclusive). Consider `O=S(=O)(NCC(c1ccco1)N1CCN(c2ccc(F)cc2)CC1)c1ccc2c(c1)OCCO2` (configuration not stated), for which the EC50 is > 150 µM (inactive) in [1] and > 38 µM (not active) in [4]. For `O=C(NC(=S)Nn1cnc2c(cnn2-c2ccccc2)c1=O)c1ccc(Cl)cc1`, the EC50 is 143 µM (inconclusive) in [1] and > 38 µM (not active) in [4]. With `CNc1nc(-c2ccccc2C)nc2ccccc12`, the half-maximal activity concentration (AC50) in [7] was 31.6 µM (inconclusive); in experiment [9], 20 µM (inconclusive). On to `C[As+](C)(c1ccc(Br)c([N+](=O)[O-])c1)c1ccc(Br)c([N+](=O)[O-])c1`, for which, in [7], the AC50 was 1.58 µM (inconclusive).

For `COc1cccc(CNc2ccc3nc(-c4ccc(N)cc4)c(OC)n3n2)c1`, the AC50 in experiment [7] was 10 µM (inconclusive).

With `CS(=O)(=O)Nc1cccc(-c2nc(Nc3ccc(F)cc3)c3ccccc3n2)c1`, the AC50 in experiment [7] is 39.8 µM (inconclusive).

Source of the values: ChEMBL document CHEMBL1201862, “PubChem BioAssay data set” (2004).
